Test results reported in US20230383291A1, “PEPTIDE-BASED TRANSDUCTION OF NON-ANIONIC POLYNUCLEOTIDE ANALOGS FOR GENE EXPRESSION MODULATION” (FELDAN BIO INC., priority 2020, published 2023).
Where a SMILES comes first, the peptide text is derived from it.

Legend:
Format in all cases: cell-based, Human
[1] = test system: HeLa cells; test: PMO, PNA and siRNA transduction in HeLa cells with FSD250; conditions: all conditions tested, FIG. 7B
Description: Phosphorodiamidate morpholino oligomers labeled with the fluorophore FITC (PMO-FITC) were prepared at 1 mM in sterile water. HeLa cells were plated (20 000 cells/well) in a 96 well-dish the day prior to the experiment. Each delivery mix comprising a synthetic peptide shuttle agent (7.5, 10 or 20 μM) and a PMO-FITC (6 μM) was prepared and completed to 50 μL with RPMI-1640 media. Cells were washed once with PBS and the shuttle agent/PMO-FITC or PMO-FITC alone added on cells for five minutes. Then, 100 μL DMEM containing 10% FBS was added to the mix and removed. Cells were washed once with PBS and incubated in DMEM containing 10% FBS. Cells were analyzed after a 2-hour incubation by flow cytometry.
HeLa cells were transduced with 10 μM of PMO-FITC or fluorescently-labeled Peptide Nucleic Acid (PNA) (PNA TelC-Alexa 488; cat. no. F1004; PNA BIO Inc.) as generally described in the transduction protocol described in Example 1 with a few modifications. The shuttle peptide used was FSD250 (5 μM) and cells were contacted with the cargo and shuttle agent for two minutes, and cells were analyzed after a 1-hour incubation by flow cytometry.

[2] = in vitro; conditions: human, RH-30 cells
Description: (§1) Although naked DNA/RNA cargoes are shown to themselves be poor cargoes of synthetic peptide shuttle agents (Examples 3 and 9), the present Example evaluates their potential dominant negative effect in trans on shuttle agent-mediated transduction of PMO cargoes. Briefly, RH-30 cells (150,000 cells/well in 24-well dish) were contacted with a delivery mix of 6 μM of a PMO-FITC and of 5 μM of the synthetic peptide shuttle agent FSD250 for 2 minutes in RPMI, in the presence of increasing amounts of a DNA oligonucleotide or an sgRNA spiked in medium. Cells were then washed, incubated in growth medium and then collected for analysis by flow cytometry after 1 h. […] In all conditions tested, cell viability remained above 75%.
(§2) The present Example compares the PMO transduction activity of a prototypical CPD-comprising first generation shuttle agent with that of two rationally-designed second generation synthetic peptide shuttle agents. Briefly, RH-30 cells (20,000 cells/well in 96-well dish) were contacted with a delivery mix of 6 μM of a PMO-FITC and increasing concentrations of the first-generation shuttle agent His-CM18-PTD4 or two CPD-lacking second generation synthetic peptide shuttle agents (FSD250 and FSD10) for 2 minutes in RPMI. Cells were washed, incubated in complete medium and then collected for analysis by flow cytometry after 1 h. […]

[3] = test system: RH-30 cells; test: in vitro; conditions: 6 μM PMO-FITC, increasing shuttle concentrations, 2 minutes
Description: as §1, §2

[4] = test system: HeLa cells; test: Propidium iodide (PI) transduction screening in HeLa cells; conditions: negative control peptide tested in parallel; data not shown
Description: HeLa cells were plated (20 000 cells/well) in a 96 well-dish the day prior to the experiment. Each delivery mix comprising a synthetic peptide shuttle agent (10 μM) and the propidium iodide (PI) (10 μg/mL) or the GFP-NLS (10 μM) were prepared and completed to 50 μL with phosphate-buffered saline (PBS) for PI or with RPMI-1640 medium for GFP-NLS. Cells were washed once and the shuttle agent/PI or shuttle agent/GFP-NLS added on cells for one minute (PI) or 5 minutes (GFP-NLS). Then 100 μL DMEM containing 10% FBS was added to the mix and removed. Cells were washed once with PBS and incubated in DMEM containing 10% FBS. Cells were analyzed after 2-hour incubation by flow cytometry. Cells were analyzed […]. […]
Due to the large number of peptides screened, negative controls were performed in parallel for each experimental batch and included a “no treatment” (NT) control in which the cells were not exposed to shuttle peptide or cargo, as well as a “cargo alone” control in which cells were exposed to the cargo in the absence of shuttle agent. […] Mean PI or GFP-NLS delivery score was calculated by multiplying the mean fluorescence intensity (of at least duplicate samples) measured for the viable PI+ or GFP+ cells by the mean percentage of viable PI+ or GFP+ cells, divided by 100,000 for GFP delivery or by 10,000 for PI delivery. […]

[5] = test system: HeLa cells; test: PMO-FITC delivery in HeLa cells, immunofluorescence microscopy (vs Endoporter); conditions: 10 μM PMO-FITC with shuttle agent, 5-minute incubation in RPMI
Description: A PMO cargo delivery experiment in HeLa cells was performed to directly compare synthetic peptide shuttle agent-mediated PMO transduction with Endoporter-mediated intracellular PMO delivery. For shuttle agent-mediated transduction, HeLa cells were exposed to 10 μM of PMO-FITC in the presence of 2.5, 5, 7.5, or 10 μM of the second-generation shuttle agent FSD396 for 5 minutes in RPMI. For Endoporter-mediated delivery, HeLa cells were exposed to 10 μM of PMO-FITC in the presence of 2.5, 5, 7.5, or 10 μM of the commercially-available Endoporter' peptide (GeneTools, LLC) in growth medium for the manufacturer's recommended minimum incubation time of at least 24 hours. After a washing step, delivery results were compared by observing intracellular PMO-FITC fluorescence via immunofluorescence microscopy and results are shown in FIG. 11.

[6] = test system: Gli1 protein; test: Gli1 knock-down in DU145 cells, Western blot; conditions: FITC+ cells vs FITC− cells; 6 μM PMO, 5 μM FSD250, 48 hours
Description: DU145 cells were trypsinized and plated (500 000 cells/well) in a 24 well-dish the day prior to the experiment. […] Cells were washed once with PBS and delivery mixes were added on cells for five minutes. Then, 2 mL of RPMI-1640 containing 10% FBS was added to the mix and removed. Untreated cells were incubated with RPMI-1640 only. Cells were incubated in fresh RPMI-1640 containing 10% FBS. Forty height hours later, medium was removed and cells were washed once with PBS prior to trypsinization. Cells were harvested, collected by centrifugation, washed, and resuspended with PBS. Then, PMO-FITC positive and PMO-FITC negative cells were sorted and collected by virtue of FACS (BD FACS Aria Fusion). FITC-positive and FITC-negative cell samples were collected by centrifugation and resuspended in 50 μL protein extraction RIPA buffer (150 mM NaCl, 1% Nonidet™ P-40, 0.1% SDS, 0.5% Sodium deoxycholate, 25 mM Tris). Total protein concentrations were measured with a BCA protein assay kit. For all conditions, 10 μg of proteins were prepared at a final volume of 40 μL with 4× Laemmeli and RIPA buffer. Protein samples were then heated at 90° C. and separated through an 8% SDS-PAGE gel. Proteins were then transferred over night (25 volts) onto a […] PVDF membrane. Membranes were blocked using a 5% bovine serum albumin, Tris Buffer Saline, 0.1% Tween® 20 solution (5% BSA/TBS-T) for an hour. After blocking, the membrane was incubated for an hour with a 5% BSA/TBS-T solution containing anti alpha-Actinin (D6F6) primary antibody at a 1:1000. Alpha-Actinin protein present in the cell lysates served as loading control. Subsequently, the membranes were incubated over night with a 5% BSA/TBS-T solution containing anti-Gli1 primary antibody diluted 1:500. The membrane was then subjected to a 1-hour incubation at 1:5000 dilution of HRP-conjugated goat anti-rabbit secondary antibody 5% BSA/TBS-T solution. Chemiluminescence detection was performed using Clarity™ Western ECL Substrate and a ChemiDoc™ XRS apparatus. Gli1 and Alpha-Actinin densitometry was assessed using ImageJ™ software. […]

## CC(C)C[C@H](NC(=O)[C@H](CCCCN)NC(=O)[C@H](CC(C)C)NC(=O)[C@H](CC(C)C)NC(=O)[C@H](CCCNC(=N)N)NC(=O)[C@H](CO)NC(=O)[C@H](Cc1c[nH]c2ccccc12)NC(=O)[C@H](CC(C)C)NC(=O)[C@H](CCCCN)NC(=O)[C@H](CC(C)C)NC(=O)[C@H](CC(C)C)NC(=O)[C@H](CCCCN)NC(=O)[C@H](Cc1c[nH]c2ccccc12)NC(=O)[C@@H](N)CCCCN)C(=O)N[C@@H](Cc1c[nH]c2ccccc12)C(=O)NCC(=O)NCC(=O)N[C@@H](CO)C(=O)NCC(=O)NCC(=O)NCC(=O)N[C@@H](CO)C(=O)N[C@@H](C)C(=O)N[C@@H](CCCNC(=N)N)C(=O)N[C@@H](C)C(=O)N[C@@H](C)C(=O)N[C@@H](CCCNC(=N)N)C(=O)N[C@@H](CCC(N)=O)C(=O)N[C@@H](C)C(=O)N[C@@H](CCCNC(=N)N)C(=O)O [FSD250] (H-KWKLLKLWSRLLKLWGGSGGGSARAARQAR-OH)
[1]
  Cell viability: remained high
[2]
  viability at 2 min, 5 µM: > 75%

## FSD10: CPD-lacking second generation synthetic peptide shuttle agent (KWKLARAFARAIKKLGGSGGGSYARALRRQARTG; FSD10)
[3]
  PMO-FITC transduction efficiency compared to His-CM18-PTD4: higher transduction efficiencies

## FSD174 Scramble: negative control peptide known to have low or no GFP transduction activity (LGRSGRIKIGGWSALASRARQARGLKIWTQGRL; FSD174 Scramble)
[4]
  PI transduction efficiency compared to cargo alone: lower transduction efficiencies for PI

## FSD396: second-generation shuttle agent (KLKLAKLLLKALKKLGGSGGGSQAKAQAKQAK; FSD396)
[5]
  intracellular delivery of PMO-FITC: robust intracellular delivery

## PMO-Wnt1: antisense PMO molecule designed to knock-down expression of the Wnt1 protein (antisense GCAACAGCGCCCAGAGCCCCATG; all phosphorodiamidate morpholino (PMO))
[6]
  Gli1 protein expression: knocked-down
